The test can be described thus: Type B (low volume, EC formulation, track sprayer 200 L/ha) assay, leaf blotch of wheat, SEPTTR field isolate (FI SEPTTR). In kind it is in vivo, Mycosphaerella graminicola on wheat plants (variety Yuma). Particulars: Zymoseptoria tritici, 72 h, 100 g/ha. The method, then:
Example A: Evaluation of Fungicidal Activity: Leaf Blotch of Wheat (Mycosphaerella graminicola; Anamorph: Septoria tritici; Bayer Code SEPTTR)
For Type A assays, technical grades of the experimental fungicides in Table 4 below were dissolved in acetone, and then mixed with nine volumes of water containing 110 ppm Triton X-100. The fungicide solutions were applied onto wheat seedlings using an automated booth sprayer. For Type B assays, emulsifiable concentrate (EC) formulations of technical grades of the experimental fungicides in Table 4 below were prepared at 10% (w/v), and then mixed with 150 volumes of 0.1% Trycol 5941. These solutions were applied onto wheat seedlings using an automated track sprayer at 200 L/ha. All sprayed plants were allowed to air dry prior to further handling.
Wheat plants (variety Yuma) were grown from seed in a greenhouse in 50% mineral soil/50% soil-less Metro mix until the first leaf was fully emerged, with 7-10 seedlings per pot. Prior to or after application of experimental fungicides, plants were inoculated either with spores of a standard laboratory SEPTTR isolate (SI SEPTTR) or with spores from a SEPTTR field isolate collected from Wellsbourne, England in 2012 (FI SEPTTR). After inoculation the plants were kept for 3 days at 20° C. in 100% relative humidity (one day in a dark dew chamber followed by two days in a lighted dew chamber). Plants were then transferred to a 20° C. greenhouse for disease development. When disease symptoms were fully expressed on untreated plants, infection levels on treated plants were assessed on a scale of 0 to 100 percent disease severity. Percent disease control was calculated using the ratio of disease severity on treated plants relative to untreated plants.

The mark [1] stands for this setting: field isolate, low volume EC, 3 Day Curative, wheat (Yuma), read-out: Disease Control, FI SEPTTR Type B Assay (100 g/ha) 3 DC.
Where [2] appears, read: field isolate, low volume EC, 3 Day Protectant, wheat (Yuma), read-out: Disease Control, FI SEPTTR Type B Assay (100 g/ha) 3 DP.
Where [3] appears, read: SEPTTR field isolate, low volume Type B assay, 3 Day Curative, wheat leaf blotch, read-out: Disease Control, FI SEPTTR Type B Assay (100 g/ha) 3 DC.
Setting [4] is: SEPTTR field isolate, low volume Type B assay, 3 Day Protectant, wheat leaf blotch, read-out: Disease Control, FI SEPTTR Type B Assay (100 g/ha) 3 DP.

36 compounds from patent publication US10167300B2, “Metalloenzyme inhibitor compounds as fungicides” (priority 2014, dated 2019) can be followed below.

Like-named read-outs stand apart in the source and are kept apart here.

In the case of `CC(C)(C)C(O)(c1ccc(-c2ccc(OCC(F)(F)F)cc2)cn1)c1cnccn1` (stereo not drawn) [Compound 225], the pest or weed control at 100 g/ha is 80 to 100% under setting [1] and 60 to 79% under setting [2].

Take `COC(c1cncnc1)(c1ccc(-c2ccc(OC(F)(F)F)cn2)cn1)C(C)(C)C` (stereo not drawn) [Compound 173]: the pest or weed control at 100 g/ha under setting [1] lay in the range of 80 to 100% and the pest or weed control at 100 g/ha under setting [2] fell in the range of 80 to 100%.

Turning to `CCOC(C)(c1cncnc1)c1ccc(-c2ccc(OC(F)(F)F)cc2F)cn1` (stereo not drawn) [Compound 215], the pest or weed control at 100 g/ha reads like this: under setting [1], below 40%; under setting [2], below 40%.

Turning to `COc1ncncc1C(O)(c1ccc(-c2ccc(C3(C#N)CC3)cc2F)cn1)C(C)(C)C` (stereo not drawn) [Compound 233], the pest or weed control at 100 g/ha is, setting by setting: under setting [1], 80 to 100%; under setting [2], 80 to 100%.

Consider `COc1ncncc1C(O)(c1ccc(-c2ccc(C(C)(C)C#N)cc2)cn1)C(C)(C)C` (stereo not drawn) [Compound 240], for which the pest or weed control at 100 g/ha reads like this: under setting [1], 80 to 100%; under setting [2], 80 to 100%.

On to `CC(C)(C)C(O)(Cc1cncnc1)c1ccc(-c2ccc(SC(F)(F)F)cc2)cn1` (stereo not drawn) [Compound 219], for which the pest or weed control at 100 g/ha reads like this: under setting [1], 40 to 59%; under setting [2], 60 to 79%.

Take `CC(C)(C)C(O)(Cc1cncnc1)c1ccc(-c2ccc(OCC(F)(F)F)nc2)cn1` (stereo not drawn) [Compound 195]: the pest or weed control at 100 g/ha under setting [1] is below 40% and the pest or weed control at 100 g/ha under setting [2] lay in the range of 40 to 59%.

In the case of `CCOC(c1cncnc1)(c1ccc(-c2ccc(OC(F)(F)F)cc2F)cn1)C(C)C` (stereo not drawn) [Compound 176], the pest or weed control at 100 g/ha is below 40% under setting [1] and 60 to 79% under setting [2].

As for `Cc1cc(C(C)(C)C#N)cnc1-c1ccc(C(O)(c2cncnc2)C(C)(C)C)nc1` (stereo not drawn) [Compound 239], the pest or weed control at 100 g/ha by setting is: under setting [1], 80 to 100%; under setting [2], 80 to 100%.

Regarding `COC(c1cncnc1)(c1ccc(-c2ccc(OCC(F)(F)F)nc2)cn1)C(C)(C)C` (stereo not drawn) [Compound 253], the pest or weed control at 100 g/ha under setting [1] was 80 to 100% and the pest or weed control at 100 g/ha under setting [2] lay in the range of 80 to 100%.

Regarding `CCOC(c1cncnc1)(c1ccc(-c2ccc(OC(F)(F)F)cc2)cn1)C(C)C` (stereo not drawn) [Compound 272], the pest or weed control at 100 g/ha reads like this: under setting [3], below 40%; under setting [4], 60 to 79%.

`COC(c1cncnc1)(c1ccc(-c2ccc(C(C)(C)C#N)cc2F)cn1)C(C)(C)C` (stereo not drawn) [Compound 228]: the pest or weed control at 100 g/ha runs as follows: under setting [1], 80 to 100%; under setting [2], 80 to 100%.

Turning to `C#CCOC(c1cncnc1)(c1ccc(-c2ccc(OC(F)(F)F)cc2)cn1)C(C)(C)C` (stereo not drawn) [Compound 197], the pest or weed control at 100 g/ha is below 40% under setting [1] and 80 to 100% under setting [2].

For `CC(C)(C)C(O)(c1cncnc1)c1ccc(-c2c(F)cc(OC(F)(F)F)cc2F)cn1` (stereo not drawn) [Compound 210], the pest or weed control at 100 g/ha was in the range of 80 to 100% under setting [1] and 80 to 100% under setting [2].

As for `CCC(C#N)(CC)c1ccc(-c2ccc(C(O)(c3cncnc3)C(C)(C)C)nc2)c(F)c1` (stereo not drawn) [Compound 268], the pest or weed control at 100 g/ha under setting [3] was 80 to 100% and the pest or weed control at 100 g/ha under setting [4] lay within 80 to 100%.

On to `CCOC(CC)(c1cncnc1)c1ccc(-c2ccc(OC(F)(F)F)cc2F)cn1` (stereo not drawn) [Compound 190], for which the pest or weed control at 100 g/ha fell in the range of 60 to 79% under setting [1] and 40 to 59% under setting [2].

As to `COC(c1cncnc1)(c1ccc(-c2ccc(C(C)(C)C#N)cc2C)cn1)C(C)(C)C` (stereo not drawn) [Compound 267], the pest or weed control at 100 g/ha is, setting by setting: under setting [3], 60 to 79%; under setting [4], 80 to 100%.

With `COc1ncncc1C(O)(c1ccc(-c2ccc(Cl)cc2)cn1)C(C)(C)C` (stereo not drawn) [Compound 247], the pest or weed control at 100 g/ha is below 40% under setting [1] and 80 to 100% under setting [2].

Consider `C#CCOC(CC)(c1cncnc1)c1ccc(-c2ccc(OC(F)(F)F)cc2F)cn1` (stereo not drawn) [Compound 238], for which the pest or weed control at 100 g/ha under setting [1] is 60 to 79% and the pest or weed control at 100 g/ha under setting [2] is below 40%.

On to `CCC(O)(c1cncnc1)c1ccc(-c2ccc(OC(F)(F)F)cc2)cn1` (stereo not drawn) [Compound 258], for which the pest or weed control at 100 g/ha runs as follows: under setting [3], below 40%; under setting [4], 60 to 79%.

On to `CC(C)(C)C(O)(Cc1cccnc1)c1ccc(-c2ccc(C3(C#N)CC3)cc2)cn1` (stereo not drawn) [Compound 227], for which the pest or weed control at 100 g/ha reads like this: under setting [1], below 40%; under setting [2], 40 to 59%.

Consider `CCOC(c1cncnc1)(c1ccc(-c2ccc(OC(F)(F)F)cc2F)cn1)C(C)(C)C` (stereo not drawn) [Compound 220], for which the pest or weed control at 100 g/ha by setting is: under setting [1], below 40%; under setting [2], 80 to 100%.

In the case of `COC(c1cncnc1)(c1ccc(-c2ccc(OC(F)(F)F)cc2C)cn1)C(C)(C)C` (stereo not drawn) [Compound 261], the pest or weed control at 100 g/ha lay within 80 to 100% under setting [3] and 80 to 100% under setting [4].

As to `C#CCOC(c1cncnc1)(c1ccc(-c2ccc(OC(F)(F)F)cc2F)cn1)C1CC1` (stereo not drawn) [Compound 250], the pest or weed control at 100 g/ha under setting [1] was below 40% and the pest or weed control at 100 g/ha under setting [2] was in the range of 80 to 100%.

Take `Cc1cc(C2(C#N)CCC2)ccc1-c1ccc(C(O)(c2cncnc2)C(C)(C)C)nc1` (stereo not drawn) [Compound 212]: the pest or weed control at 100 g/ha lay in the range of 80 to 100% under setting [1] and 80 to 100% under setting [2].

As for `CC(C)(C#N)c1ccc(-c2ccc(C(O)(c3cncnc3)C(C)(C)C)nc2)c(F)c1` (stereo not drawn) [Compound 226], the pest or weed control at 100 g/ha is 80 to 100% under setting [1] and 80 to 100% under setting [2].

On to `CCC(C#N)(CC)c1ccc(-c2ccc(C(O)(c3cncnc3)C(C)(C)C)nc2)c(C)c1` (stereo not drawn) [Compound 264], for which the pest or weed control at 100 g/ha by setting is: under setting [3], 80 to 100%; under setting [4], 80 to 100%.

With `COc1ncncc1C(O)(c1ccc(-c2ccc(OCC(F)(F)F)nc2)cn1)C(C)(C)C` (stereo not drawn) [Compound 218], the pest or weed control at 100 g/ha was below 40% under setting [1] and 80 to 100% under setting [2].

`COC(c1cncnc1)(c1ccc(-c2ccc(OC(F)(F)F)cc2F)cn1)C1CC1` (stereo not drawn) [Compound 200]: the pest or weed control at 100 g/ha under setting [1] was below 40% and the pest or weed control at 100 g/ha under setting [2] lay in the range of 80 to 100%.

On to `COC(C)(c1cncnc1)c1ccc(-c2ccc(OC(F)(F)F)cc2)cn1` (stereo not drawn) [Compound 241], for which the pest or weed control at 100 g/ha was below 40% under setting [1] and 40 to 59% under setting [2].

In the case of `CC(C)(C)C(O)(c1ccc(-c2ccc(OC(F)(F)F)cc2)cn1)c1cnccn1` (stereo not drawn) [Compound 207], the pest or weed control at 100 g/ha is, setting by setting: under setting [1], 40 to 59%; under setting [2], 60 to 79%.

As for `CC(C)(C)C(O)(Cc1cncnc1)c1ccc(-c2ccc(C3(C#N)CC3)cc2)cn1` (stereo not drawn) [Compound 178], the pest or weed control at 100 g/ha under setting [1] was below 40% and the pest or weed control at 100 g/ha under setting [2] is 60 to 79%.

As for `C#CCOC(O)(c1cncnc1)c1ccc(-c2ccc(OC(F)(F)F)cc2)cn1` (stereo not drawn) [Compound 243], the pest or weed control at 100 g/ha runs as follows: under setting [1], below 40%; under setting [2], 80 to 100%.

`Cc1cc(C(C)(C)C#N)ccc1-c1ccc(C(O)(c2cncnc2)C(C)(C)C)nc1` (stereo not drawn) [Compound 223]: the pest or weed control at 100 g/ha under setting [1] was 80 to 100% and the pest or weed control at 100 g/ha under setting [2] was 80 to 100%.

`CC(C)(C)c1ccc(-c2ccc(C(O)(Cc3cncnc3)C(C)(C)C)nc2)cc1` (stereo not drawn) [Compound 181]: the pest or weed control at 100 g/ha by setting is: under setting [1], below 40%; under setting [2], 60 to 79%.

Regarding `CC(C)(C)c1ccc(-c2ccc(C(O)(Cc3cccnc3)C(C)(C)C)nc2)cc1` (stereo not drawn) [Compound 201], the pest or weed control at 100 g/ha under setting [1] lay in the range of 60 to 79% and the pest or weed control at 100 g/ha under setting [2] lay in the range of 80 to 100%.
